For the assay, the system named is MCH receptors. Kind of assay: MCH receptor activity class (method not given). Conditions: class by percent of control at 10^-7 M or IC50.

`C[C@@H](NC(=O)c1ccccc1C(=O)N[C@H]1CC[C@@H](Nc2nccc(N(C)C)n2)CC1)c1cccc2ccccc12` [compound 877, N-(cis-4-{[4-(dimethylamino)pyrimidin-2-yl]amino}cyclohexyl)-N′-[(1R)-1-(1-naphthyl)ethyl]phthalamide]: the class was 2 (Class 2: The value of percent of control at 10^−7 M was from 40% to 60% or the value of IC′50 was from 50 nM to 200 nM.). Next, `C[C@H](C(=O)N[C@H]1CC[C@@H](Nc2nccc(N(C)C)n2)CC1)c1cccc(C(=O)c2ccccc2)c1` [compound 878, (2S)-2-(3-benzoylphenyl)-N-(cis-4-{[4-(dimethylamino)pyrimidin-2-yl]amino}cyclohexyl)propanamide]: 2 (Class 2: The value of percent of control at 10^−7 M was from 40% to 60% or the value of IC′50 was from 50 nM to 200 nM.); `C[C@@H](c1ccccc1)N(C(=O)c1ccccc1C(=O)N[C@H]1CC[C@@H](Nc2nccc(N(C)C)n2)CC1)[C@@H](C)c1ccccc1` [compound 879, N′-(cis-4-{[4-(dimethylamino)pyrimidin-2-yl]amino}cyclohexyl)-N,N-bis[(1S)-1-phenylethyl]phthalamide]: 1 (Class 1: The value of percent of control at 10^−7 M was less than 40% or the value of IC50 was less than 50 nM.).

Regarding `C[C@H](C(=O)N[C@H]1CC[C@@H](Nc2nccc(N(C)C)n2)CC1)c1ccc(-c2ccccc2)c(F)c1` [compound 880], the class is reported as 3 (Class 3 The value of percent of control at 10^−7 M was more than 60% or the value of IC50 was more than 200 nM.).

With `CN(C)c1ccnc(N[C@H]2CC[C@@H](NC(=O)CCC(=O)c3cccs3)CC2)n1` [compound 885], the class is 3 (Class 3 The value of percent of control at 10^−7 M was more than 60% or the value of IC50 was more than 200 nM.). Regarding `CN(C)c1ccnc(N[C@H]2CC[C@@H](NC(=O)CCCc3cccs3)CC2)n1` [compound 886], the class was 3 (Class 3 The value of percent of control at 10^−7 M was more than 60% or the value of IC50 was more than 200 nM.). To `CN(C)c1ccnc(N[C@H]2CC[C@@H](NC(=O)Cc3c[nH]c4ccc(OCc5ccccc5)cc34)CC2)n1` [compound 887] belongs 3 (Class 3 The value of percent of control at 10^−7 M was more than 60% or the value of IC50 was more than 200 nM.). To `CN(C)c1ccnc(N[C@H]2CC[C@@H](NC(=O)c3ccccc3C(=O)c3cccc4ccccc34)CC2)n1` [compound 888] belongs 3 (Class 3 The value of percent of control at 10^−7 M was more than 60% or the value of IC50 was more than 200 nM.); to `COc1ccc(C(=O)N[C@H]2CC[C@@H](Nc3nccc(N(C)C)n3)CC2)cc1OCc1ccccc1` [compound 889, 3-(benzyloxy)-N-(cis-4-{[4-(dimethylamino)pyrimidin-2-yl]amino}cyclohexyl)-4-methoxybenzamide], 1 (Class 1: The value of percent of control at 10^−7 M was less than 40% or the value of IC50 was less than 50 nM.); to `Cc1c(C(=O)N[C@H]2CC[C@@H](Nc3nccc(N(C)C)n3)CC2)cc(-c2ccccc2)n1-c1ccccc1` [compound 890, N-(cis-4-{[4-(dimethylamino)pyrimidin-2-yl]amino}cyclohexyl)-2-methyl-1,5-diphenyl-1H-pyrrole-3-carboxamide], 1 (Class 1: The value of percent of control at 10^−7 M was less than 40% or the value of IC50 was less than 50 nM.). To `Cc1c(C(=O)N[C@H]2CC[C@@H](Nc3nccc(N(C)C)n3)CC2)cc(-c2ccccc2)n1CCSCc1c(F)cccc1Cl` [compound 891] belongs 1 (Class 1: The value of percent of control at 10^−7 M was less than 40% or the value of IC50 was less than 50 nM.); to `CN(C)c1ccnc(N[C@H]2CC[C@@H](NC(=O)c3c4ccccc4cc4ccccc34)CC2)n1` [compound 892], 3 (Class 3 The value of percent of control at 10^−7 M was more than 60% or the value of IC50 was more than 200 nM.).

Take `CN(C)c1ccnc(N[C@H]2CC[C@@H](NC(=O)c3ccccc3Oc3ccccc3)CC2)n1` [compound 893, N-(cis-4-{[4-(dimethylamino)pyrimidin-2-yl]amino}cyclohexyl)-2-phenoxybenzamide]: the class is listed as 2 (Class 2: The value of percent of control at 10^−7 M was from 40% to 60% or the value of IC′50 was from 50 nM to 200 nM.). To `CN(C)c1ccnc(N[C@H]2CC[C@@H](NC(=O)c3ccccc3-c3ccccc3)CC2)n1` [compound 894] belongs 3 (Class 3 The value of percent of control at 10^−7 M was more than 60% or the value of IC50 was more than 200 nM.). Next, `CN(C)c1ccnc(N[C@H]2CC[C@@H](NC(=O)CC(c3ccccc3)c3ccccc3)CC2)n1` [compound 895]: 3 (Class 3 The value of percent of control at 10^−7 M was more than 60% or the value of IC50 was more than 200 nM.). To `CN(C)c1ccnc(N[C@H]2CC[C@@H](NC(=O)c3cc(-c4ccccc4)nc4ccccc34)CC2)n1` [compound 896, N-(cis-4-{[4-(dimethylamino)pyrimidin-2-yl]amino}cyclohexyl)-2-phenylquinoline-4-carboxamide] belongs 2 (Class 2: The value of percent of control at 10^−7 M was from 40% to 60% or the value of IC′50 was from 50 nM to 200 nM.); to `C[C@H](NC(=O)c1ccccc1C(=O)N[C@H]1CC[C@@H](Nc2nccc(N(C)C)n2)CC1)c1ccccc1` [compound 897], 3 (Class 3 The value of percent of control at 10^−7 M was more than 60% or the value of IC50 was more than 200 nM.). Turning to `Cc1ccc(C(=O)c2ccccc2C(=O)N[C@H]2CC[C@@H](Nc3nccc(N(C)C)n3)CC2)cc1` [compound 898], the class is reported as 3 (Class 3 The value of percent of control at 10^−7 M was more than 60% or the value of IC50 was more than 200 nM.). To `CN(C)c1ccnc(N[C@H]2CC[C@@H](NC(=O)c3ccccc3COc3ccccc3)CC2)n1` [compound 899] belongs 3 (Class 3 The value of percent of control at 10^−7 M was more than 60% or the value of IC50 was more than 200 nM.). Regarding `CN(C)c1ccnc(N[C@H]2CC[C@@H](NC(=O)Cc3sc(-c4ccccc4)nc3-c3ccc(Cl)cc3)CC2)n1` [compound 900, 2-[4-(4-chlorophenyl)-2-phenyl-1,3-thiazol-5-yl]-N-(cis-4-{[4-(dimethylamino)pyrimidin-2-yl]amino}cyclohexyl)acetamide], the class is given as 1 (Class 1: The value of percent of control at 10^−7 M was less than 40% or the value of IC50 was less than 50 nM.). With `Cc1ccc(S(=O)(=O)n2ccc(C(=O)N[C@H]3CC[C@@H](Nc4nccc(N(C)C)n4)CC3)c2)cc1` [compound 901, N-(cis-4-{[4-(dimethylamino)pyrimidin-2-yl]amino}cyclohexyl)-1-[(4-methylphenyl)sulfonyl]-1H-pyrrole-3-carboxamide], the class is given as 2 (Class 2: The value of percent of control at 10^−7 M was from 40% to 60% or the value of IC′50 was from 50 nM to 200 nM.). For `CN(C)c1ccnc(N[C@H]2CC[C@@H](NC(=O)c3ccc(-c4cccc([N+](=O)[O-])c4)o3)CC2)n1` [compound 902, N-(cis-4-{[4-(dimethylamino)pyrimidin-2-yl]amino}cyclohexyl)-5-(3-nitrophenyl)-2-furamide], the class is listed as 2 (Class 2: The value of percent of control at 10^−7 M was from 40% to 60% or the value of IC′50 was from 50 nM to 200 nM.). Regarding `CN(C)c1ccnc(N[C@H]2CC[C@@H](NC(=O)c3scc(S(C)(=O)=O)c3Cl)CC2)n1` [compound 903], the class is on record as 3 (Class 3 The value of percent of control at 10^−7 M was more than 60% or the value of IC50 was more than 200 nM.). Next, `CSc1sc(C(=O)N[C@H]2CC[C@@H](Nc3nccc(N(C)C)n3)CC2)c(Cl)c1S(=O)(=O)C(C)C` [compound 904, 3-chloro-N-(cis-4-{[4-(dimethylamino)pyrimidin-2-yl]amino}cyclohexyl)-4-(isopropylsulfonyl)-5-(methylthio)thiophene-2-carboxamide]: 2 (Class 2: The value of percent of control at 10^−7 M was from 40% to 60% or the value of IC′50 was from 50 nM to 200 nM.); `CSc1sc(C(=O)N[C@H]2CC[C@@H](Nc3nccc(N(C)C)n3)CC2)c(I)c1S(=O)(=O)C(C)C` [compound 905]: 2 (Class 2: The value of percent of control at 10^−7 M was from 40% to 60% or the value of IC′50 was from 50 nM to 200 nM.); `CN(C)c1ccnc(N[C@H]2CC[C@@H](NC(=O)c3csc([N+](=O)[O-])c3)CC2)n1` [compound 906, N-(cis-4-{[4-(dimethylamino)pyrimidin-2-yl]amino}cyclohexyl)-5-nitrothiophene-3-carboxamide]: 1 (Class 1: The value of percent of control at 10^−7 M was less than 40% or the value of IC50 was less than 50 nM.). Turning to `CN(C)c1ccnc(N[C@H]2CC[C@@H](NC(=O)c3cc([N+](=O)[O-])cn3C)CC2)n1` [compound 907, N-(cis-4-{[4-(dimethylamino)pyrimidin-2-yl]amino}cyclohexyl)-1-methyl-4-nitro-1H-pyrrole-2-carboxamide], the class is given as 1 (Class 1: The value of percent of control at 10^−7 M was less than 40% or the value of IC50 was less than 50 nM.). On to `CN(C)c1ccnc(N[C@H]2CC[C@@H](NC(=O)c3cn(S(=O)(=O)c4ccccc4)c4ccccc34)CC2)n1` [compound 908], for which the class was 3 (Class 3 The value of percent of control at 10^−7 M was more than 60% or the value of IC50 was more than 200 nM.). Next, `CN(C)c1ccnc(N[C@H]2CC[C@@H](NC(=O)c3ccc([N+](=O)[O-])cc3)CC2)n1` [compound 909, N-(cis-4-{[4-(dimethylamino)pyrimidin-2-yl]amino}cyclohexyl)-4-nitrobenzamide]: 2 (Class 2: The value of percent of control at 10^−7 M was from 40% to 60% or the value of IC′50 was from 50 nM to 200 nM.).

Consider `COc1cc([N+](=O)[O-])ccc1C(=O)N[C@H]1CC[C@@H](Nc2nccc(N(C)C)n2)CC1` [compound 910], for which the class is recorded as 3 (Class 3 The value of percent of control at 10^−7 M was more than 60% or the value of IC50 was more than 200 nM.). To `CN(C)c1ccnc(N[C@H]2CC[C@@H](NC(=O)c3ccc(C(F)(F)F)c(F)c3)CC2)n1` [compound 911] belongs 3 (Class 3 The value of percent of control at 10^−7 M was more than 60% or the value of IC50 was more than 200 nM.).

Source of the values: patent US20050197350A1, “Novel quinoline, tetrahydroquinazoline, and pyrimidine derivatives and methods of treatment related to the use thereof” (TAISHO PHARMACEUTICAL CO., LTD., priority 2003, published 2005).
